The results in this text go back to ChEMBL document CHEMBL1153942, “Design and efficient synthesis of novel ascorbyl conjugated peptide with high collagen biosynthesis stimulating effects” (Bioorg Med Chem Lett, 2009).

For data set [1], the system named is HDF. Briefly: Stimulation of collagen biosynthesis in primary cultured neonatal HDF at 1 to 1000 uM after 72 hrs by ELISA in presence of fetal bovine serum. Type of data set: functional, cell-based. The following applies: Homo sapiens.
For data set [2], the system named is HDF. In words: Stimulation of collagen biosynthesis in primary cultured neonatal HDF at 100 uM after 72 hrs by ELISA in presence of fetal bovine serum. Type of data set: functional, cell-based. The following applies: Homo sapiens. On the technique in general: An ELISA detects its analyte on a solid surface through an enzyme-linked reagent.
The nature of data set [3]: Cytotoxicity against HDF at >100 uM. Type of data set: cell-based. The following applies: human.
Data set [4] is described as follows: Stability in rat skin homogenates. Type of data set: ADME, tissue-based, Zone of skin. The conditions noted are these: read-out: Stability.
A short description of data set [5]: Stability in rat skin homogenates assessed as compound remain after 6 hrs. Type of data set: ADME, tissue-based, Zone of skin. The following applies: read-out: Stability.

The source made the active and inactive calls. The rule behind the calls is not given here. Residues, ends and D or L forms follow the SMILES beside them. *: point of attachment. X1 = O=C(CCC(=O)*)OCC(O)C1OC(=O)C(O)=C1O; Palmitoyl = CCCCCCCCCCCCCCCC(=O)*

For the molecule `O=C1O[C@H]([C@@H](O)CO)C(O)=C1O`, in data set [1], the outcome was inactive.
`CCCCCCCCCCCCCCCC(=O)N[C@@H](CCCCN)C(=O)N[C@H](C(=O)N[C@H](C(=O)N[C@@H](CCCCN)C(=O)N[C@@H](CO)C(=O)O)[C@@H](C)O)[C@@H](C)O` (Palmitoyl-KTTKS-OH): the result in data set [2] was Active. In data set [3], the result was Active.
As to `C[C@@H](O)[C@H](NC(=O)[C@H](CCCCN)NC(=O)CCC(=O)OCC(O)C1OC(=O)C(O)=C1O)C(=O)N[C@H](C(=O)N[C@@H](CCCCN)C(=O)N[C@@H](CO)C(=O)O)[C@@H](C)O` (some centres not stated) (X1-KTTKS-OH), the half-life in data set [4] was over 6 h. In addition, the outcome in data set [1] was Active. The remaining at 6 h in data set [5] is under 10%.
As for H-KTTKS-OH, in data set [1], the result was inactive.
